Experimental data reported in patent US12084436B2, “Heterocyclic compound” (Takeda Pharmaceutical Company Limited, priority 2019, dated 2024).

Molecular target: T1, HDAC6 enzyme (Homo sapiens, UniProt Q9UBN7)
T1 construct: prepared by transducing full length HDAC6 gene into Sf-9 insect cells; GST; purchased SignalChem; host or cells: Sf-9 insect cells
T1 sequence (Q9UBN7 1-1215): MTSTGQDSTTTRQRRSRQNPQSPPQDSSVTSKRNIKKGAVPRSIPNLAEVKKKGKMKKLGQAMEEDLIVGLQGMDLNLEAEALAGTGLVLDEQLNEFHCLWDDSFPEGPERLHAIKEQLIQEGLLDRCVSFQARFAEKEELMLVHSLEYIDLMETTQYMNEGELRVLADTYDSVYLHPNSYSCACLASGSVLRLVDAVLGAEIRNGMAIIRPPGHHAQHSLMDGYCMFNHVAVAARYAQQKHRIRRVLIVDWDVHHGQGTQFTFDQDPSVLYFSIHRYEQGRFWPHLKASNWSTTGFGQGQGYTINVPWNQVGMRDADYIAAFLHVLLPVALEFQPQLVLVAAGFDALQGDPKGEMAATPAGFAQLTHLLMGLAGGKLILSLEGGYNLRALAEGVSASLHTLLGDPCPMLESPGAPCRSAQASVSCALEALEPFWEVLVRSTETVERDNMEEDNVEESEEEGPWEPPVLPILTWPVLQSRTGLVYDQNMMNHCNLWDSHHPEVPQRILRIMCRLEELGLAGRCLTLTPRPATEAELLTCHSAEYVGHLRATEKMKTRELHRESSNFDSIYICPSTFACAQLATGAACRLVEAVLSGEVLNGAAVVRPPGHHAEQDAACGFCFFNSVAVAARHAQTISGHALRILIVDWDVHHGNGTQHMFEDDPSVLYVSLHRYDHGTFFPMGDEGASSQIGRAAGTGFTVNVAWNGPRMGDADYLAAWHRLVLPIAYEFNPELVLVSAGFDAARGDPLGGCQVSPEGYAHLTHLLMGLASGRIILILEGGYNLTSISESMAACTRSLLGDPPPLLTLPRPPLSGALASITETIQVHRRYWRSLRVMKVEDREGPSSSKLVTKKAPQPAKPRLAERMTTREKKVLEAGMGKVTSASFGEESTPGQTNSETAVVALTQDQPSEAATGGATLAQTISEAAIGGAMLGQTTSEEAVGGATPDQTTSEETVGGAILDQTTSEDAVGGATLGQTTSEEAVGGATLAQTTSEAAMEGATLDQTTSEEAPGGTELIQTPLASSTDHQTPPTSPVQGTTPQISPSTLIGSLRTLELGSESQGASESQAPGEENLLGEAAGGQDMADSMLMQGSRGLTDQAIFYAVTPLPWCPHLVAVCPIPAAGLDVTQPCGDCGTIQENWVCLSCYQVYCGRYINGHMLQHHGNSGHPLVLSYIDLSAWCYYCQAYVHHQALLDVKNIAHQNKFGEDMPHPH
Assay: HDAC6 enzyme inhibitory assay (HDAC-Glo I/II Assay kit, luminescence)
Type: biochemical
Details: 10 μM test compound; wells without enzyme = 100% inhibition; read-out: HDAC6 inhibitory rate (%) (10 μM)
Method in brief: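 Full-length human HDAC6, GST-purified from Sf-9 cells, was preincubated with compound for 60 min at room temperature in Tris-HCl pH 7.5 buffer with glutathione and Tween-20. Substrate-developer was then added, and luminescence was read after 20 min at room temperature. Inhibition was expressed relative to no-enzyme wells, taken as 100% inhibition.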

| inhibition at 10 µM [%] | Compound |
| --- | --- |
| 99 | N#Cc1ccc(Cn2ccnc2-c2cc(-c3nnc(C(F)F)o3)ccn2)cc1F [Example 75a, 4-[(2-{4-[5-(difluoromethyl)-1,3,4-oxadiazol-2-yl]pyridin-2-yl}-1H-imidazol-1-yl)methyl]-2-fluorobenzonitrile] |
| 100 | Fc1ccc(Cn2ccnc2-c2cc(-c3nnc(C(F)F)o3)ccn2)nc1 [Example 76a, 4-[5-(difluoromethyl)-1,3,4-oxadiazol-2-yl]-2-{1-[(5-fluoropyridin-2-yl)methyl]-1H-imidazol-2-yl}pyridine] |
| 99 | FC(F)c1nnc(-c2ccnc(-n3ncc4c3C(c3ccccc3)CCC4)c2)o1 (centres unmarked) [Example 77a] |
| 103 | Cc1ccc(Cn2ccnc2-c2cc(-c3nnc(C(F)F)o3)ccn2)cc1 [Example 78a] |
| 99 | N#Cc1ccccc1Cn1ccnc1-c1cc(-c2nnc(C(F)F)o2)ccn1 [Example 79a] |
| 104 | COc1ccc(Cn2ccnc2-c2cc(-c3nnc(C(F)F)o3)ccn2)cc1 [Example 80a, 4-[5-(difluoromethyl)-1,3,4-oxadiazol-2-yl]-2-{1-[(4-methoxyphenyl)methyl]-1H-imidazol-2-yl}pyridine] |
| 101 | COc1cccc(Cn2ccnc2-c2cc(-c3nnc(C(F)F)o3)ccn2)c1 [Example 81a, 4-[5-(difluoromethyl)-1,3,4-oxadiazol-2-yl]-2-{1-[(3-methoxyphenyl)methyl]-1H-imidazol-2-yl}pyridine] |
| 99 | N#Cc1cnc(-c2cc(-c3nnc(C(F)F)o3)ccn2)n1Cc1cccc(F)c1 [Example 82a, 2-{4-[5-(difluoromethyl)-1,3,4-oxadiazol-2-yl]pyridin-2-yl}-1-[(3-fluorophenyl)methyl]-1H-imidazole-5-carbonitrile] |
| 100 | Cc1cccc(Cn2ccnc2-c2cc(-c3nnc(C(F)F)o3)ccn2)c1 [Example 83a, 4-[5-(difluoromethyl)-1,3,4-oxadiazol-2-yl]-2-{1-[(3-methylphenyl)methyl]-1H-imidazol-2-yl}pyridine] |
| 100 | COc1ccccc1Cn1ccnc1-c1cc(-c2nnc(C(F)F)o2)ccn1 [Example 84a, 4-[5-(difluoromethyl)-1,3,4-oxadiazol-2-yl]-2-{1-[(2-methoxyphenyl)methyl}-1H-imidazol-2-yl}pyridine] |
| 101 | Fc1cccc(Cn2ncnc2-c2cc(-c3nnc(C(F)F)o3)ccn2)c1 [Example 85a, 4-[5-(difluoromethyl)-1,3,4-oxadiazol-2-yl]-2-{1-[(3-fluorophenyl)methyl]-1H-1,2,4-triazol-5-yl}pyridine] |
| 100 | Cc1ccccc1Cn1ccnc1-c1cc(-c2nnc(C(F)F)o2)ccn1 [Example 86a, 4-[5-(difluoromethyl)-1,3,4-oxadiazol-2-yl]-2-{1-[(2-methylphenyl)methyl]-1H-imidazol-2-yl}pyridine] |
| 99 | Fc1cccc(Cc2ccnn2-c2cc(-c3nnc(C(F)F)o3)ccn2)c1 [Example 87a, 4-[5-(difluoromethyl)-1,3,4-oxadiazol-2-yl]-2-{5-[(3-fluorophenyl)methyl]-1H-pyrazol-1-yl}pyridine] |
| 100 | Cn1ccc(OC2CCC(F)(F)CC2)c(-c2cc(-c3nnc(C(F)F)o3)ccn2)c1=O [Example 88a, 4′-[(4,4-difluorocyclohexyl)oxy]-4-[5-(difluoromethyl)-1,3,4-oxadiazol-2-yl]-1′-methyl[2,3′-bipyridine]-2′(1′H)-one] |
| 97 | Fc1cccc(Cc2ncnn2-c2cc(-c3nnc(C(F)F)o3)ccn2)c1 [Example 89a, 4-[5-(difluoromethyl)-1,3,4-oxadiazol-2-yl]-2-{5-[(3-fluorophenyl)methyl]-1H-1,2,4-triazol-1-yl}pyridine] |
| 98 | Fc1cccc(Cc2cncnc2-c2cc(-c3nnc(C(F)F)o3)ccn2)c1 [Example 90a, 4-{4-[5-(difluoromethyl)-1,3,4-oxadiazol-2-yl]pyridin-2-yl}-5-[(3-fluorophenyl)methyl]pyrimidine] |
| 100 | Cn1ccc(OC2CCOCC2)c(-c2cc(-c3nnc(C(F)F)o3)ccn2)c1=O [Example 91a, 4-[5-(difluoromethyl)-1,3,4-oxadiazol-2-yl]-1′-methyl-4′-[(oxan-4-yl)oxy][2,3′-bipyridine]-2′(1′H)-one] |
| 100 | CC(c1cccc(F)c1)n1ccnc1-c1cc(-c2nnc(C(F)F)o2)ccn1 (centres unmarked) [Example 92a, 4-[5-(difluoromethyl)-1,3,4-oxadiazol-2-yl]-2-{1-[1-(3-fluorophenyl)ethyl]-1H-imidazol-2-yl}pyridine] |
| 100 | FC(F)c1nnc(-c2ccnc(-c3nccn3Cc3cncc(Cl)c3)c2)o1 [Example 93a, 2-{1-[(5-chloropyridin-3-yl)methyl]-1H-imidazol-2-yl}-4-[5-(difluoromethyl)-1,3,4-oxadiazol-2-yl]pyridine] |
| 99 | N#Cc1cccc(Cn2ccnc2-c2cc(-c3nnc(C(F)F)o3)ccn2)n1 [Example 94a, 6-[(2-{4-[5-(difluoromethyl)-1,3,4-oxadiazol-2-yl]pyridin-2-yl]-1H-imidazol-1-yl)methyl]pyridine-2-carbonitrile] |
| 100 | N#Cc1ccnc(Cn2ccnc2-c2cc(-c3nnc(C(F)F)o3)ccn2)c1 [Example 95a, 2-[(2-{4-[5-(difluoromethyl)-1,3,4-oxadiazol-2-yl]pyridin-2-yl}-1H-imidazol-1-yl)methyl]pyridine-4-carbonitrile] |

System: tauopathy mouse model
Assay: not given
Details: cited from earlier work

| Compound | acetylation of tubulin | therapeutic effectiveness |
| --- | --- | --- |
| CN1CCc2c(c3ccccc3n2Cc2ccc(C(=O)NO)cc2)C1 [Tubastatin A] | increases acetylation of tubulin | shows therapeutic effectiveness |
